From patent US20110065712A1, “TRICYCLIC COMPOUNDS AND PHARMACEUTICAL USES THEREOF” (CYLENE PHARMACEUTICALS , INC., priority 2009, published 2011)

How the values were obtained:
recombinant Pim-1 = recombinant Pim-1 (Homo sapiens, UniProt P11309); experiment: Pim-1 assay (33P-ATP, filter plate); type: biochemical; conditions: read-out: PIM1: IC50
Description: The following procedure was used to assay the Pim-1 kinase activity of compounds of the invention. Other methods for assaying Pim-1 and other Pim kinases, as well as methods to assay for activity against the various kinases disclosed herein are known in the art.
In a final reaction volume of 50 ul, recombinant Pim-1 (1 ng) was incubated with 12 mM MOPS pH 7.0, 0.4 mM EDTA, glycerol 1%, brij 35 0.002%, 2-mercaptoethanol 0.02%, BSA 0.2 mg/ml, 100 uM KKRNRTLTK, 10 mM MgAcetate, 15 uM ATP, [γ-^33P-ATP] (specific activity approx. […]), DMSO 4% and test inhibitor compound at the required concentration. The reaction was initiated by the addition of the magnesium ATP mixture. After 40 min incubation at 23° C., the reactions were quenched by the addition of 100 ul 0.75% Phosphoric acid, and the labeled peptide collected by filtration through a phosphocellulose filter plate. The plate was washed 4 times with 0.075% phosphoric acid (100 ul per well) and then, after the addition of scintillation fluid (20 ul per well), the counts were measured by a scintillation counter.

recombinant human Pim-2 = recombinant human Pim-2 (Homo sapiens, UniProt Q9P1W9); experiment: PIM-2 assay (33P-ATP, filter plate); type: biochemical; conditions: read-out: PIM2: IC50
Sequence of recombinant human Pim-2 (Q9P1W9 whole entry): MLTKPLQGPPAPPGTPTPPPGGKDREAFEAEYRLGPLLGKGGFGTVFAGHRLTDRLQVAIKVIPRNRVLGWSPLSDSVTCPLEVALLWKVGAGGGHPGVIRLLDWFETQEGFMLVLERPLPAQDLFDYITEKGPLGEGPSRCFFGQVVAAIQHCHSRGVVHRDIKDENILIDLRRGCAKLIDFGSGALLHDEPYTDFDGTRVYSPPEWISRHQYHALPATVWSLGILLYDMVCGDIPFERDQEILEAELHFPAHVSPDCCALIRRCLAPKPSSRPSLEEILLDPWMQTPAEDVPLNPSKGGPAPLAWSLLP
Description: Test compounds dissolved and diluted in DMSO (2 μl) were added to a reaction mixture comprising 10 μl of 5× Reaction Buffer (40 mM MOPS pH 7.0, 5 mM EDTA), 10 μl of recombinant human Pim-2 solution (4 ng Pim-2 dissolved in dilution buffer (20 mM MOPS pH 7.0; EDTA 1 mM; 5% Glycerol; 0.01% Brij 35; […]; […] 2-mercaptoethanol; 1 mg/ml BSA)) and 8 ul of water. Reactions were initiated by the addition of 10 ul of ATP Solution (49% (15 mM MgCl2; 75 uM ATP) 1% ([γ-^33P]ATP: Stock 1mCi/1000; 3000Ci/mmol (Perkin Elmer)) and 10 ul of substrate peptide solution (RSRSSYPAGT, dissolved in water at a concentration of 1 mM), Reactions were maintained for 10 min at 30° C. The reactions were quenched with 100 ul of 0.75% phosphoric acid, then transferred to and filtered through a Phosphocellulose filter plate (Millipore, MSPH-N6B-50). After washing each well 4 times with 0.75% phosphoric acid, scintillation fluid (20 uL) was added to each well and the residual radioactivity was measured using a Wallac […] counter.

Sequence of recombinant Pim-1 (P11309 whole entry): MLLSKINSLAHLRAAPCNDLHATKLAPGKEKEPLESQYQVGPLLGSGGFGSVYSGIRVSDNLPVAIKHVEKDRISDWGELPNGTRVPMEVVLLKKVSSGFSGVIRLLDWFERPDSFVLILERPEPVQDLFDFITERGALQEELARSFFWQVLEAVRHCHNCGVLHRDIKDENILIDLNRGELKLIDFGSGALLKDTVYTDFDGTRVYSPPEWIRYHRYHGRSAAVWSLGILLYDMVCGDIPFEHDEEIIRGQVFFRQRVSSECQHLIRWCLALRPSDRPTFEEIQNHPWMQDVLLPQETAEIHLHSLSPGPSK

An IC50 (recombinant Pim-1) of under 1000 nM and an IC50 (recombinant human Pim-2) of under 1000 nM were found for `NC(=O)c1cnn2c1nc(Nc1ccccc1Cl)c1ccccc12` [Compound B, 5-(2-chlorophenylamino)pyrazolo[1,5-a]quinazoline-3-carboxamide] in this work.
